Reference: article PMC11474028, “Lipopeptide antibiotics disrupt interactions of undecaprenyl phosphate with UptA” (Proceedings of the National Academy of Sciences of the …, 2024)
Entries after “also recorded” stand apart in the source; their conditions may differ.

Columns and labels:
Design in all cases: species or system Bacillus subtilis
UptA Q64A = test: Native MS of C55-P binding to UptA mutant Q64A; conditions: 5 µM protein, 10 µM C55-P, pH 8.02, 0.05% LDAO, 200 mM ammonium acetate, collisional activation 100 V; three biological replicates
From the text: (§1) Conserved arginine residues in the putative membrane reentrant loops of E. coli DedA proteins YqjA (R130) and YghB (R136) are important for the cellular role of these proteins ([36]). […] How these residues impact substrate interactions, however, is not known. Based on the model structure of UptA predicted by AlphaFold, the R112 residue should engage Q64 while R118 is able to form hydrogen bonds with E32, H119, and W146 to potentially stabilize the membrane reentrant loops (Fig. 3A). To test for the impact of these residues on C55-P binding, we generated the E32A, Q64A, R112A, R118A, H119A, and W146A UptA single mutants. After purification of the proteins, using the same protocol as the wild type (WT) (Materials and Methods and SI Appendix, Fig. S5), we equilibrated aliquots of each protein variant (5 µM) with C55-P (10 µM) and recorded spectra using the same instrument settings. […] We additionally generated a double mutant R112E/R118E in which the polarity of both native arginine residues in the wild type are reversed.
(§2) Expression and purification of UptA
(§3) Plasmids were used to transform chemically competent E. coli C43(DE3) cells (Lucigen) and selected on LB/Agar containing 100 μg/ml ampicillin at 37 °C. Single colonies were used to inoculate 60 mL LB containing 100 μg/ml ampicillin and were grown at 37 °C overnight for 16 h. […]

UptA R112E/R118E = test: Native MS of C55-P binding to UptA double mutant R112E/R118E; conditions: 5 µM protein, 10 µM C55-P, pH 8.02, 0.05% LDAO, 200 mM ammonium acetate, 100 V; mean of three biological replicates
From the text: as §1, §2, §3

UptA R112A/R118A = test: Native MS of C55-P binding to UptA double mutant R112A/R118A; conditions: 5 µM protein, 10 µM C55-P, pH 8.02, 0.05% LDAO, 200 mM ammonium acetate, 100 V; mean of three biological replicates
UptA R118A/R119A = test: Native MS of C55-P binding to UptA double mutant R118A/R119A; conditions: 5 µM protein, 10 µM C55-P, pH 8.02, 0.05% LDAO, 200 mM ammonium acetate, 100 V; mean of three biological replicates
UptA E32A = test: Native MS of C55-P binding to UptA mutant E32A; conditions: 2.5 µM E32A UptA and 10 µM C55-P, pH 8.0
From the text: Conserved arginine residues in the putative membrane reentrant loops of E. coli DedA proteins YqjA (R130) and YghB (R136) are important for the cellular role of these proteins ([36]). […] How these residues impact substrate interactions, however, is not known. Based on the model structure of UptA predicted by AlphaFold, the R112 residue should engage Q64 while R118 is able to form hydrogen bonds with E32, H119, and W146 to potentially stabilize the membrane reentrant loops (Fig. 3A). To test for the impact of these residues on C55-P binding, we generated the E32A, Q64A, R112A, R118A, H119A, and W146A UptA single mutants. After purification of the proteins, using the same protocol as the wild type (WT) (Materials and Methods and SI Appendix, Fig. […]
as §2, §3
The digestion mixture was subsequently incubated with 2-mL bed volume of nickel nitriloacetic acid (NTA) agarose resin to remove His-tagged GFP and TEV protease. […] Concentration was measured using a Biomate UV spectrophotometer at 280 nm using extinction coefficients calculated from their predicted amino […]

CC(C)=CCC/C(C)=C/CC/C(C)=C/CC/C(C)=C\CC/C(C)=C\CC/C(C)=C\CC/C(C)=C\CC/C(C)=C\CC/C(C)=C\CC/C(C)=C\CC/C(C)=C\COP(=O)(O)O [C55-P, undecaprenyl phosphate]
reduction in C55-P binding intensity compared to wild type, Q64A (in words) (UptA Q64A): modest reduction
reduction in the intensity of C55-P binding compared to wild type, R112E/R118E (UptA R112E/R118E): 63%
reduction in C55-P binding, R112A/R118A (UptA R112A/R118A): 43%
reduction in C55-P binding, R118A/R119A (UptA R118A/R119A): 46%
C55-P binding to E32A UptA dimers versus monomers (in words) (UptA E32A): more significantly than the monomeric form; also recorded: relative intensity of ligand-bound dimers is significantly higher than the ligand-bound monomers
impact of C55-P binding on monomer–dimer ratio of E32A UptA (in words) (UptA E32A): modest increase in the dimer fraction; also recorded: only a modest impact on the monomer–dimer ratios
